According to patent US4513008A, “Virucidal compositions and therapy” (The Vinoxen Company, Inc., priority 1982, dated 1985):
“Also recorded” adds a separate entry of the source.

How the values were obtained:
HSV-2 = experiment: In vivo mouse bioassay: intravaginal HSV-2 infection, topical treatment; set-up: species or system HSV-2 strain 333 in female Swiss Webster mice; key to Max. Lesion Score: 0: no clinical signs of vaginal infection; ±: slight perivaginal redness; perivaginal redness and swelling of 1-2 mm; perivaginal redness and swelling of 2-3 mm; perivaginal and perianal redness and swelling of 3-4 mm; perivaginal and perianal redness and swelling of 4 mm or more, with exudate; conditions: for # Infected, Day 14 / # of Deaths, Day 14: 10 animals/group
herpes virus type 2 = experiment: Guinea pig bioassay: intravaginal HSV-2 infection, topical treatment; assay type: in vivo; set-up: key to MVL Score Day 5 / MVL Score Day 6 / MVL Score Day 7 / MVL Score Day: lesion severity scored on 0 to 4 scale; conditions: for MVL Scores Days 5-8: 0 to 4 scale; for Infected, Treated Surv/Total: 28 days; for MVL Score Day: last day; for reduction in lesion scores, in words: guinea pigs, topical
Protocol: In both studies, DHA was compared with ACV in a controlled study for effectiveness in reducing the occurrence and the severity of lesions resulting from infection by HSV-2 and in reducing mortality resulting from the virus infection.
Using substantially the procedures of Pancic et al., loc. cit., the topical activity of DHA, a representative and preferred virucide for use in the present method, was evaluated in mice and in guinea pigs. Both evaluations included comparative testing against ACV and the mouse tests included a comparison of two different vehicles.
A blind comparative test was carried out on guinea pigs using coded substances labeled A through D. The testers were told only that one of the four substances was ACV, that the other three coded samples were the same material, in concentrations of 0.1, 1.0 and 10 mg/ml, and that all four samples were formulated in a polyethylene glycol 1000 (PEG-1000) vehicle. A separate sample of the PEG-1000 was also submitted to serve as a placebo for treating virus control animals. The materials and experimental protocol is shown below.
Animals. Female Hartley strain albino guinea pigs weighing about 450-500 g were used. The animals were quarantined 24 hr prior to use in this study, and maintained 5 to a 32"×32"×9" stainless steel cage on Wayne guinea pig diet and water ad libitum.
Virus. Strain E194 of herpes virus type 2 was used. […] The virus was held at -90° C. until used.
Drugs. The substances tested consisted of four bottles labelled "A", "B", "C", and "D" with no identifying key. The samples were: A, 0.1 mg/ml DHA (0.003 mmol/ml); B, 5% w/w ACV (0.22 mmol/ml); C, 1 mg/ml DHA (0.03 mmol/ml); and D, 10 mg/ml DHA ([…]). […] All were treated as light-sensitive compounds.
Experimental Protocol. The guinea pigs were infected by applying a virus-soaked swab intravaginally, with agitation, for 20 seconds. […] Treatment began 20 hr later, with the compound or placebo applied topically intravaginally, perivaginally, and perianally using cotton swabs soaked in the respective substance. Treatment continued three times daily (8 a.m., noon, 4 p.m.) for 7 days. Ten infected animals were used for each coded substance, with twenty used for virus controls. Five sham-infected animals were concomitantly treated with each coded substance to serve as toxicity controls. Two guinea pigs were held separately to serve as normal untreated controls.
On days 5 through 8 post-virus inoculation, the genital area was carefully examined and signs of irritation in the toxicity controls and lesion severity in injected animals was scored on a 0 to 4 scale using the same scale as in the mouse bioassay. The results were scored as average daily lesion (ADL) scores for each group, and as mean vaginal lesion (MVL) scores, calculated as the mean of the ADL scores for days 5-8. The maximum mean score for the toxicity control animals was also determined.
On day 6 prior to the 8 a.m. treatment, intravaginal and perivaginal areas of each infected guinea pig were uniformly swabbed with sterile cotton swabs. The swab for each animal was placed in 1.0 ml of sterile Eagles minimum essential medium and immediately frozen at -90° C.; several days later all were thawed and each swab-containing sample vortexed for 15 seconds and then the sample was diluted through a series of 10-fold dilutions in sterile medium. Each dilution was assayed for virus in triplicate by adding 0.1 ml to an established monolayer of MA-104 cells in 96-well disposable plastic microplates. The plates were sealed, incubated at 72 hr at 37° C., and virus-induced cytopathic effect noted microscopically.
Data Analysis. Increases in survivors were analyzed using chi square analysis with Yate's correction. Mean survival times (MST) of animals dying on or before […] were determined for each group, and evaluated using the t test.

[1] = C: 1 mg/ml DHA in PEG-1000, P < 0.05
[2] = D: 10 mg/ml DHA in PEG-1000, P < 0.05

CCC=CCC=CCC=CCC=CCC=CCC=CCCC(=O)O [DHA, 4,7,10,13,16,19 Docosahexaenoic Acid]
% Mortality (HSV-2; DMSO & High DHA (10 mg/ml)): 20% | Day of Maximum % Morbidity (HSV-2; DMSO & High DHA (10 mg/ml)): 7 days | Maximum % Morbidity (HSV-2; DMSO & High DHA (10 mg/ml)): 40% | Mean Day of Death (HSV-2; DMSO & High DHA (10 mg/ml)): 8.5 days | % Mortality (HSV-2; DMSO & Low DHA (1 mg/ml)): 30% | Day of Maximum % Morbidity (HSV-2; DMSO & Low DHA (1 mg/ml)): 7 days | Maximum % Morbidity (HSV-2; DMSO & Low DHA (1 mg/ml)): 40% | Mean Day of Death (HSV-2; DMSO & Low DHA (1 mg/ml)): 11.7 days | # Infected, Day 14 (HSV-2; High DHA 10 mg/ml in DMSO): 4 | # of Deaths, Day 14 (HSV-2; High DHA 10 mg/ml in DMSO): 2 | # Infected, Day 14 (HSV-2; High DHA 10 mg/ml in PEG): 5 | # of Deaths, Day 14 (HSV-2; High DHA 10 mg/ml in PEG): 3 | # Infected, Day 14 (HSV-2; Low DHA 1 mg/ml in DMSO): 4 | # of Deaths, Day 14 (HSV-2; Low DHA 1 mg/ml in DMSO): 2 | Max. Lesion Score (HSV-2; Low DHA 1 mg/ml in PEG): ± | # Infected, Day 14 (HSV-2; Low DHA 1 mg/ml in PEG): 1 | # of Deaths, Day 14 (HSV-2; Low DHA 1 mg/ml in PEG): 0 | % Mortality (HSV-2; Ointment & High DHA (10 mg/ml)): 30% | Day of Maximum % Morbidity (HSV-2; Ointment & High DHA (10 mg/ml)): 7 days | Maximum % Morbidity (HSV-2; Ointment & High DHA (10 mg/ml)): 50% | Mean Day of Death (HSV-2; Ointment & High DHA (10 mg/ml)): 11.7 days | % Mortality (HSV-2; Ointment & Low DHA (1 mg/ml)): 0% | Day of Maximum % Morbidity (HSV-2; Ointment & Low DHA (1 mg/ml)): 6 days | Maximum % Morbidity (HSV-2; Ointment & Low DHA (1 mg/ml)): 10% | Mean Day of Death (HSV-2; Ointment & Low DHA (1 mg/ml)): > 14 days | efficacy in mice in words (HSV-2; topical, HSV-2 infected mice): effective virucidal activity against HSV-2, especially the low dose ointment preparation; also recorded: highly effective in comparison with ACV in reducing lesions and in reducing mortality rates in mice; also recorded: a low dose of DHA in the particular ointment vehicle used for test purposes appeared to have a higher activity than a high dose of the same material in the same vehicle | MST (mean survival time) (herpes virus type 2; A: 0.1 mg/ml DHA in PEG-1000): 12.3 days | MVL Score Day 5 (herpes virus type 2; A: 0.1 mg/ml DHA in PEG-1000): 2.4 | MVL Score Day 6 (herpes virus type 2; A: 0.1 mg/ml DHA in PEG-1000): 3.0 | MVL Score Day 7 (herpes virus type 2; A: 0.1 mg/ml DHA in PEG-1000): 3.5 | MVL Scores Days 5-8 (herpes virus type 2; A: 0.1 mg/ml DHA in PEG-1000): 3.2 | Infected, Treated Surv/Total (herpes virus type 2; A: 0.1 mg/ml DHA in PEG-1000): 6/10 | MVL Score Day (herpes virus type 2; A: 0.1 mg/ml DHA in PEG-1000): 3.8 | MST (mean survival time) (herpes virus type 2; C: 1 mg/ml DHA in PEG-1000): 13.3 days | MVL Score Day 5 (herpes virus type 2; C: 1 mg/ml DHA in PEG-1000): 1.7 | MVL Score Day 7 (herpes virus type 2; C: 1 mg/ml DHA in PEG-1000): 2.8 | MVL Scores Days 5-8 (herpes virus type 2; [1]): 2.4 | Infected, Treated Surv/Total (herpes virus type 2; C: 1 mg/ml DHA in PEG-1000): 4/10 | MVL Score Day 6 (herpes virus type 2; [1]): 2.3 | MVL Score Day (herpes virus type 2; C: 1 mg/ml DHA in PEG-1000): 3.1 | MST (mean survival time) (herpes virus type 2; D: 10 mg/ml DHA in PEG-1000): 16.5 days | MVL Score Day 7 (herpes virus type 2; D: 10 mg/ml DHA in PEG-1000): 3.0 | MVL Scores Days 5-8 (herpes virus type 2; [2]): 2.4 | Infected, Treated Surv/Total (herpes virus type 2; D: 10 mg/ml DHA in PEG-1000): 8/10 | MVL Score Day 5 (herpes virus type 2; [2]): 1.5 | MVL Score Day 6 (herpes virus type 2; [2]): 2.1 | MVL Score Day (herpes virus type 2; D: 10 mg/ml DHA in PEG-1000): 3.1 | reduction in lesion scores, in words (herpes virus type 2): neither ACV nor the lowest dosage of DHA were able to achieve a statistically significant reduction in lesion scores | reduction in lesion scores, in words (herpes virus type 2; listed as C): statistically significant reductions in lesion scores | reduction in lesion scores, in words (herpes virus type 2; listed as D): statistically significant reductions in lesion scores
